According to ChEMBL document CHEMBL3734713, “4-Thiazolidinone derivatives as potent antimicrobial agents: microwave-assisted synthesis, biological evaluation and docking studies” (2015):
Converted amounts (≈) assume the structure as drawn.

Tests used:
[1] = tested on: Bacillus cereus; experiment: Antibacterial activity against clinical isolates of Bacillus cereus assessed as growth inhibition after 24 hrs at 37 degC by iodonitrotetrazolium chloride staining based microdilution broth assay; assay type: functional
[2] = tested on: Micrococcus flavus; experiment: Antibacterial activity against Micrococcus flavus ATCC 10240 assessed as growth inhibition after 24 hrs at 37 degC by iodonitrotetrazolium chloride staining based microdilution broth assay; assay type: functional; settings: ATCC 10240, 24 h
[3] = tested on: Staphylococcus aureus; experiment: Antibacterial activity against Staphylococcus aureus ATCC 6538 assessed as growth inhibition after 24 hrs at 37 degC by iodonitrotetrazolium chloride staining based microdilution broth assay; assay type: functional; settings: ATCC 6538, 24 h
[4] = tested on: Listeria monocytogenes; experiment: Antibacterial activity against Listeria monocytogenes NCTC 7973 assessed as growth inhibition after 24 hrs at 37 degC by iodonitrotetrazolium chloride staining based microdilution broth assay; assay type: functional; settings: NCTC 7973, 24 h
[5] = tested on: Escherichia coli; experiment: Antibacterial activity against Escherichia coli ATCC 35210 assessed as growth inhibition after 24 hrs at 37 degC by iodonitrotetrazolium chloride staining based microdilution broth assay; assay type: functional; settings: ATCC 35210, 24 h
[6] = tested on: Enterobacter cloacae; experiment: Antibacterial activity against human isolate of Enterobacter cloacae assessed as growth inhibition after 24 hrs at 37 degC by iodonitrotetrazolium chloride staining based microdilution broth assay; assay type: functional
[7] = tested on: Pseudomonas aeruginosa; experiment: Antibacterial activity against Pseudomonas aeruginosa ATCC 27853 assessed as growth inhibition after 24 hrs at 37 degC by iodonitrotetrazolium chloride staining based microdilution broth assay; assay type: functional; settings: ATCC 27853, 24 h
[8] = tested on: Salmonella typhimurium; experiment: Antibacterial activity against Salmonella typhimurium ATCC 13311 assessed as growth inhibition after 24 hrs at 37 degC by iodonitrotetrazolium chloride staining based microdilution broth assay; assay type: functional, Salmonella enterica subsp. enterica serovar Typhimurium; settings: Salmonella enterica, ATCC 13311, 24 h
[9] = tested on: Aspergillus fumigatus; experiment: Antifungal activity against Aspergillus fumigatus ATCC 1022 assessed as growth inhibition after 72 hrs at 28 degC by serial dilution method; assay type: functional; settings: for MIC: Aspergillus fumigatus, ATCC 1022, 72 h
[10] = tested on: Aspergillus versicolor; experiment: Antifungal activity against Aspergillus versicolor ATCC 11730 assessed as growth inhibition after 72 hrs at 28 degC by serial dilution method; assay type: functional; settings: for MIC: Aspergillus versicolor, ATCC 11730, 72 h
[11] = tested on: Aspergillus ochraceus; experiment: Antifungal activity against Aspergillus ochraceus ATCC 12066 assessed as growth inhibition after 72 hrs at 28 degC by serial dilution method; assay type: functional; settings: for MIC: Aspergillus ochraceus, ATCC 12066, 72 h
[12] = tested on: Aspergillus niger; experiment: Antifungal activity against Aspergillus niger ATCC 6275 assessed as growth inhibition after 72 hrs at 28 degC by serial dilution method; assay type: functional; settings: for MIC: Aspergillus niger, ATCC 6275, 72 h
[13] = tested on: Trichoderma viride; experiment: Antifungal activity against Trichoderma viride IAM 5061 assessed as growth inhibition after 72 hrs at 28 degC by serial dilution method; assay type: functional; settings: for MIC: Trichoderma viride, IAM 5061, 72 h
[14] = tested on: Talaromyces funiculosus; experiment: Antifungal activity against Penicillium funiculosum ATCC 36839 assessed as growth inhibition after 72 hrs at 28 degC by serial dilution method; assay type: functional; settings: for MIC: Talaromyces funiculosus, ATCC 36839, 72 h
[15] = tested on: Penicillium ochrochloron; experiment: Antifungal activity against Penicillium ochrochloron ATCC 9112 assessed as growth inhibition after 72 hrs at 28 degC by serial dilution method; assay type: functional; settings: for MIC: Penicillium ochrochloron, ATCC 9112, 72 h
[16] = tested on: Candida albicans; experiment: Antifungal activity against Candida albicans ATCC 10231 assessed as growth inhibition after 72 hrs at 28 degC by serial dilution method; assay type: functional; settings: for MIC: Candida albicans, ATCC 10231, 72 h
[17] = target: Human immunodeficiency virus type 1 reverse transcriptase (Human immunodeficiency virus 1) (UniProt Q72547); experiment: Inhibition of HIV1 reverse transcriptase assessed as residual enzyme activity by measuring reduction in [3H]dTTP incorporation into poly(rA)-oligo(dT) at 4 uM incubated for 15 mins by scintillation counting method relative to control

Row | SMILES | MBC [1] [µM] | MIC [1] [µM] | MBC [2] [µM] | MIC [2] [µM] | MBC [3] [µM] | MIC [3] [µM] | MBC [4] [µM] | MIC [4] [µM] | MBC [5] [µM] | MIC [5] [µM] | MBC [6] [µM] | MIC [6] [µM] | MBC [7] [µM] | MIC [7] [µM] | MBC [8] [µM] | MIC [8] [µM] | MFC99.5 [9] [×10⁻² umol/ml] | MIC [9] [µM] | MFC99.5 [10] [×10⁻² umol/ml] | MIC [10] [µM] | other results
1 | O=C1CSC(c2ccccc2Cl)N1c1nc(C23CC4CC(CC(C4)C2)C3)cs1 (configuration not stated) | 125 (≈ 53.9 µg/mL) | 30.6 (≈ 13.2 µg/mL) | 125 (≈ 53.9 µg/mL) | 45 (≈ 19.4 µg/mL) | 125 (≈ 53.9 µg/mL) | 62.5 (≈ 26.9 µg/mL) | 125 (≈ 53.9 µg/mL) | 16.2 (≈ 7 µg/mL) | 125 (≈ 53.9 µg/mL) | 62.5 (≈ 26.9 µg/mL) | 125 (≈ 53.9 µg/mL) | 30.6 (≈ 13.2 µg/mL) | 125 (≈ 53.9 µg/mL) | 62.5 (≈ 26.9 µg/mL) | 125 (≈ 53.9 µg/mL) | 62.5 (≈ 26.9 µg/mL) | 1.16 | 5.8 (≈ 2.5 µg/mL) | 1.16 | 5.8 (≈ 2.5 µg/mL) | MFC99.5 [11]: 0.07 ×10⁻² umol/ml; MIC [11]: 0.3 µM (≈ 0.129 µg/mL); MFC99.5 [12]: 1.16 ×10⁻² umol/ml; MIC [12]: 9 µM (≈ 3.88 µg/mL); MFC99.5 [13]: 1.16 ×10⁻² umol/ml; MIC [13]: 5.8 µM (≈ 2.5 µg/mL); MFC99.5 [14]: 1.16 ×10⁻² umol/ml; MIC [14]: 5.8 µM (≈ 2.5 µg/mL); MFC99.5 [15]: 1.16 ×10⁻² umol/ml; MIC [15]: 5.8 µM (≈ 2.5 µg/mL); MFC99.5 [16]: 2.32 ×10⁻² umol/ml; MIC [16]: 11.6 µM (≈ 5 µg/mL); Activity [17]: 99.1%
2 | CN[C@@H]1[C@H](O[C@H]2[C@H](O[C@H]3[C@H](O)[C@@H](O)[C@H](N=C(N)N)[C@@H](O)[C@@H]3N=C(N)N)O[C@@H](C)[C@]2(O)C=O)O[C@@H](CO)[C@H](O)[C@H]1O [STREPTOMYCIN] | 86 (≈ 50 µg/mL) | 43 (≈ 25 µg/mL) | 172 (≈ 100 µg/mL) | 86 (≈ 50 µg/mL) | 344 (≈ 200 µg/mL) | 172 (≈ 100 µg/mL) | 516 (≈ 300 µg/mL) | 258 (≈ 150 µg/mL) | 344 (≈ 200 µg/mL) | 172 (≈ 100 µg/mL) | 86 (≈ 50 µg/mL) | 43 (≈ 25 µg/mL) | 344 (≈ 200 µg/mL) | 272 (≈ 158 µg/mL) | 344 (≈ 200 µg/mL) | 172 (≈ 100 µg/mL) |  |  |  |  | 
3 | c1ccc(-c2ccc(C(c3ccccc3)n3ccnc3)cc2)cc1 (configuration not stated) [BIFONAZOLE] |  |  |  |  |  |  |  |  |  |  |  |  |  |  |  |  | 64 | 480 (≈ 149 µg/mL) | 64 | 320 (≈ 99.3 µg/mL) | MFC99.5 [11]: 80 ×10⁻² umol/ml; MIC [11]: 480 µM (≈ 149 µg/mL); MFC99.5 [12]: 64 ×10⁻² umol/ml; MIC [12]: 480 µM (≈ 149 µg/mL); MFC99.5 [13]: 80 ×10⁻² umol/ml; MIC [13]: 640 µM (≈ 199 µg/mL); MFC99.5 [14]: 80 ×10⁻² umol/ml; MIC [14]: 640 µM (≈ 199 µg/mL); MFC99.5 [15]: 64 ×10⁻² umol/ml; MIC [15]: 480 µM (≈ 149 µg/mL); MFC99.5 [16]: 48 ×10⁻² umol/ml; MIC [16]: 320 µM (≈ 99.3 µg/mL)
4 | CC1(C)S[C@@H]2[C@H](NC(=O)[C@H](N)c3ccccc3)C(=O)N2[C@H]1C(=O)O [AMPICILLIN] | 372 (≈ 130 µg/mL) | 248 (≈ 86.7 µg/mL) | 372 (≈ 130 µg/mL) | 248 (≈ 86.7 µg/mL) | 378 (≈ 132 µg/mL) | 248 (≈ 86.7 µg/mL) | 744 (≈ 260 µg/mL) | 372 (≈ 130 µg/mL) | 492 (≈ 172 µg/mL) | 372 (≈ 130 µg/mL) | 372 (≈ 130 µg/mL) | 248 (≈ 86.6 µg/mL) | 1240 (≈ 433 µg/mL) | 744 (≈ 260 µg/mL) | 492 (≈ 172 µg/mL) | 248 (≈ 86.7 µg/mL) |  |  |  |  | 
5 | CC(=O)N1CCN(c2ccc(OCC3COC(Cn4ccnc4)(c4ccc(Cl)cc4Cl)O3)cc2)CC1 (configuration not stated) [KETOCONAZOLE] |  |  |  |  |  |  |  |  |  |  |  |  |  |  |  |  | 95 | 380 (≈ 202 µg/mL) | 95 | 380 (≈ 202 µg/mL) | MFC99.5 [11]: 95 ×10⁻² umol/ml; MIC [11]: 380 µM (≈ 202 µg/mL); MFC99.5 [12]: 95 ×10⁻² umol/ml; MIC [12]: 380 µM (≈ 202 µg/mL); MFC99.5 [13]: 570 ×10⁻² umol/ml; MIC [13]: 4750 µM (≈ 2520 µg/mL); MFC99.5 [14]: 95 ×10⁻² umol/ml; MIC [14]: 380 µM (≈ 202 µg/mL); MFC99.5 [15]: 380 ×10⁻² umol/ml; MIC [15]: 3800 µM (≈ 2020 µg/mL); MFC99.5 [16]: 95 ×10⁻² umol/ml; MIC [16]: 380 µM (≈ 202 µg/mL)
